Experimental data published in patent US7482486B2, “Methods for the preparation and formulation of magnesium valproate hydrate” (BioLink Life Sciences, Inc., priority 2005, dated 2009).

How the values were obtained:
deacetylase = conditions: dose between 20 and 40 mg/kg; patients with cervical cancer; cited from earlier work
[1] = in comparison with sodium valproate or valproic acid; cited from earlier work
[2] = background statement; cited from earlier work
[3] = cited from earlier work
[4] = Stability of the solid during storage; assay type: physicochemical; conditions: ambient conditions where stated, hydrate
[5] = Hygroscopicity / deliquescence of the solid; assay type: physicochemical; conditions: isolated solid
epileptic patients = experiment: Open, comparative clinical trial in epileptic patients versus sodium valproate; conditions: expected
Source text: The therapeutic benefit of magnesium valproate hydrate of the present invention is compared with that of sodium valproate in an open, comparative clinical trial in epileptic patients. […] Then treatment is substituted with magnesium valproate hydrate (alone or combined with other drugs) for 3 months.

[6] = after 3 months of magnesium valproate hydrate, substituted for sodium valproate

## 2-propylpentanoic acid magnesium salt [magnesium valproate]
deacetylase
  deacetylase activity and histone acetylation in tumor tissues: inhibits deacetylase activity and hyperacetylates histones
[1]
  absorption rate: slower and more regular absorption rate

## CCCC(CCC)C(=O)[O-].[Na+] [Sodium valproate]
[2]
  hygroscopicity: hygroscopic

## CCCC(CCC)C(=O)O [Valproic acid, 2-propylpentanoic acid]
[3]
  solubility in water: very slightly soluble in water

## CCCC(CCC)C(=O)O [divalproex sodium]
[2]
  hygroscopicity: not hygroscopic

## magnesium valproate hydrate
[4]
  stability during storage: stable during storage under ambient conditions
[5]
  hygroscopicity / deliquescence: not hygroscopic or deliquescent
Epileptic patients; [6]
  number of patients with no convulsions or only occasional convulsions: increase significantly
  percentage of patients without convulsions: increase significantly
Epileptic patients; versus sodium valproate
  side effects (e.g., gastric discomfort or ulceration, malaise): fewer side effects
